The target in assay [1] is Tyrosine-protein kinase Blk (Homo sapiens, UniProt P51451). Briefly: Inhibition of human full length recombinant BLK at 50 nM by radiometric scintillation counting analysis relative to control.
For assay [2], the target named is Tyrosine-protein kinase Fyn (Homo sapiens, UniProt P06241). Briefly: Inhibition of human recombinant Fyn (218 to end) at 50 nM incubated for 15 mins relative to control.
In assay [3] the target is Tyrosine-protein kinase ABL1 (Homo sapiens, UniProt P00519). Description: Inhibition of human recombinant ABL1 using ATP/Ulight-TK peptide at 5 nM incubated for 15 mins relative to control.
Chain of Tyrosine-protein kinase ABL1 (P00519 whole entry): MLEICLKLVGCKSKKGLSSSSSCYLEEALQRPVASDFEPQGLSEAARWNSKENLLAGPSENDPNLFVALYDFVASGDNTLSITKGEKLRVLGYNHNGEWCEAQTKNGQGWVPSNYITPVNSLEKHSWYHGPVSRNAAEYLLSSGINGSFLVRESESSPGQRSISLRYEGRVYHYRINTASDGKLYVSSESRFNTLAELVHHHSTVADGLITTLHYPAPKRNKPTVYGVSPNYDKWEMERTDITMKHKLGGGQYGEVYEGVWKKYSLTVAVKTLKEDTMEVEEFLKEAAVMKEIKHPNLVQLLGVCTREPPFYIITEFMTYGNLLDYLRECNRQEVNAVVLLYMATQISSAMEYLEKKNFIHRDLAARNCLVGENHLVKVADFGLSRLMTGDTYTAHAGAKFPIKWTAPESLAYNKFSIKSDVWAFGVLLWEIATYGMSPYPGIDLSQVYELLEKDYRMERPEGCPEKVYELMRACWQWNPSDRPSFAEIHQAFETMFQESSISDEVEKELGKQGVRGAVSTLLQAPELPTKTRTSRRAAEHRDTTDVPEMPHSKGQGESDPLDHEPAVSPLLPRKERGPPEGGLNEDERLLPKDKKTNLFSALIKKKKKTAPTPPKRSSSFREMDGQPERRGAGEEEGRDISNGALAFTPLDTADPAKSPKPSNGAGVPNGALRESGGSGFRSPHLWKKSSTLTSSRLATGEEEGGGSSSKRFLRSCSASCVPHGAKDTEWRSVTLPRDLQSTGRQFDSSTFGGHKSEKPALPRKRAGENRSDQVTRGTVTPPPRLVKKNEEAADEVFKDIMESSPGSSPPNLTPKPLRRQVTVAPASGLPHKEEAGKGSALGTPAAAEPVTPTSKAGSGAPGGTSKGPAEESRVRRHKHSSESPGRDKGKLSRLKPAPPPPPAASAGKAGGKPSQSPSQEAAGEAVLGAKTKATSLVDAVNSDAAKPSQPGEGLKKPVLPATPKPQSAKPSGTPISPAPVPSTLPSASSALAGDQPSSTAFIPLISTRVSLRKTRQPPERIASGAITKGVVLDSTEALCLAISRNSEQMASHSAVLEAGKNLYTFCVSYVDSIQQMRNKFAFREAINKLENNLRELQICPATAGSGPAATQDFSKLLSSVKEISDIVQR
Assay [4] deals with T1, Tyrosine-protein kinase Lyn (Homo sapiens, UniProt P07948). Description: Inhibition of human full length recombinant LYN at 50 nM by radiometric scintillation counting analysis relative to control.
Assay [5] deals with T2, Tyrosine-protein kinase TXK (Homo sapiens) (UniProt P42681).
T2 sequence (whole entry): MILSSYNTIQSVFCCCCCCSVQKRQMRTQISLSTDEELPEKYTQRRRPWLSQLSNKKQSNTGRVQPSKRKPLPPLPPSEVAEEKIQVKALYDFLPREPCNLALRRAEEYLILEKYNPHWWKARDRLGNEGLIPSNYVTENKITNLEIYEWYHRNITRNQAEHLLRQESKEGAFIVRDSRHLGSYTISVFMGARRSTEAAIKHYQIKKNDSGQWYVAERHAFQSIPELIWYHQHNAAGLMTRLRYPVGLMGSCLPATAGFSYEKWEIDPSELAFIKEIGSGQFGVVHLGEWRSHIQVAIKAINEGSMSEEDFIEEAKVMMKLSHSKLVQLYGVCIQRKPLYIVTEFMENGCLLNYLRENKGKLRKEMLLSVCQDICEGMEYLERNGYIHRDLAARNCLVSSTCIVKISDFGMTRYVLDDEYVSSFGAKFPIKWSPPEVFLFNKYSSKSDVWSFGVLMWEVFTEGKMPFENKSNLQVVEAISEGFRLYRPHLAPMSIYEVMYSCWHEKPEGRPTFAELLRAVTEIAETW
Briefly: Inhibition of human recombinant Txk (256 to end) at 500 nM by radiometric scintillation counting analysis relative to control.

In assay [6] the target is T1, Tyrosine-protein kinase Lyn. Briefly: Inhibition of human full length recombinant LYN at 500 nM by radiometric scintillation counting analysis relative to control.
The target of assay [7] is Tyrosine-protein kinase Srms (Homo sapiens, UniProt Q9H3Y6). Briefly: Inhibition of human SRMS at 5 nM by radiometric scintillation counting analysis relative to control.
Chain of Tyrosine-protein kinase Srms (Q9H3Y6 whole entry): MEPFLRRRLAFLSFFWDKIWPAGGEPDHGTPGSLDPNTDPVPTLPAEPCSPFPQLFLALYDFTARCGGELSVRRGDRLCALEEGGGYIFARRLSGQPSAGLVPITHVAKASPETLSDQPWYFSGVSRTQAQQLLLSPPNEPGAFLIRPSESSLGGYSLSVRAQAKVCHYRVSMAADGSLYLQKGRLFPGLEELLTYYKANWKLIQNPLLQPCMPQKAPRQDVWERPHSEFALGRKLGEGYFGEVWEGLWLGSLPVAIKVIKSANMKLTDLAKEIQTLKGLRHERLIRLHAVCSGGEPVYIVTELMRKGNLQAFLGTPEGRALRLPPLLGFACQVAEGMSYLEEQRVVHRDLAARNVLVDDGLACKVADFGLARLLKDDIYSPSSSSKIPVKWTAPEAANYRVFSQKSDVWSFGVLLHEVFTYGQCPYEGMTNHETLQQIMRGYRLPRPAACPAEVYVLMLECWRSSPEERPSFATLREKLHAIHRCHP
Assay [8] addresses T3, Cytoplasmic tyrosine-protein kinase BMX (Homo sapiens) (UniProt P51813).
T3 sequence (whole entry): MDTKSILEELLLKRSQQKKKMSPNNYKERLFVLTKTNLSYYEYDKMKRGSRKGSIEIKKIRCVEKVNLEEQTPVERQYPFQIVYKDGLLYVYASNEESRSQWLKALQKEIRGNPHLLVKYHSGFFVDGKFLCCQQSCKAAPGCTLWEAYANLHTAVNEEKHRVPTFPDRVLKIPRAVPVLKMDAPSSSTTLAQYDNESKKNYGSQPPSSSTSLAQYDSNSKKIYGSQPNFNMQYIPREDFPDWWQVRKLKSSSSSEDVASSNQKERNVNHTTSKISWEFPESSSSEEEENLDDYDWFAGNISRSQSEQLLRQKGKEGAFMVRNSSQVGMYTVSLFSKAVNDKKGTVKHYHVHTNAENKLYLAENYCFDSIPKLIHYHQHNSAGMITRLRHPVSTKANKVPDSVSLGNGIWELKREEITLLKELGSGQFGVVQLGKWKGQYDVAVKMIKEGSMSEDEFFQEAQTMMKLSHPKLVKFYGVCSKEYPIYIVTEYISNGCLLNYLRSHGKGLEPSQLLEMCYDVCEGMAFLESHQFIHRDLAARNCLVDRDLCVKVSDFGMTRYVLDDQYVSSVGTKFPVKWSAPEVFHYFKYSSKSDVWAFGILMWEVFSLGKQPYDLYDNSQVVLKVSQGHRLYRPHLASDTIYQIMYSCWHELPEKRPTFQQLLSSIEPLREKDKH
Briefly: Inhibition of human full length recombinant Bmx at 5 nM by radiometric scintillation counting analysis relative to control.

Assay [9] deals with Tyrosine-protein kinase HCK (Homo sapiens, UniProt P08631). Briefly: Inhibition of human recombinant HCK (230 to 497) at 5 nM by radiometric scintillation counting analysis relative to control.
Assay [10] concerns the target Platelet-derived growth factor receptor beta (Homo sapiens) (UniProt P09619). Briefly: Inhibition of human recombinant PDGFRbeta (557 to end) at 50 nM by radiometric scintillation counting analysis relative to control.
Assay [11] deals with Macrophage colony-stimulating factor 1 receptor (Homo sapiens, UniProt P07333). Briefly: Inhibition of human recombinant CSF1R using ATP/Ulight-TK peptide at 50 nM incubated for 15 mins relative to control.
Chain of Macrophage colony-stimulating factor 1 receptor (P07333 whole entry): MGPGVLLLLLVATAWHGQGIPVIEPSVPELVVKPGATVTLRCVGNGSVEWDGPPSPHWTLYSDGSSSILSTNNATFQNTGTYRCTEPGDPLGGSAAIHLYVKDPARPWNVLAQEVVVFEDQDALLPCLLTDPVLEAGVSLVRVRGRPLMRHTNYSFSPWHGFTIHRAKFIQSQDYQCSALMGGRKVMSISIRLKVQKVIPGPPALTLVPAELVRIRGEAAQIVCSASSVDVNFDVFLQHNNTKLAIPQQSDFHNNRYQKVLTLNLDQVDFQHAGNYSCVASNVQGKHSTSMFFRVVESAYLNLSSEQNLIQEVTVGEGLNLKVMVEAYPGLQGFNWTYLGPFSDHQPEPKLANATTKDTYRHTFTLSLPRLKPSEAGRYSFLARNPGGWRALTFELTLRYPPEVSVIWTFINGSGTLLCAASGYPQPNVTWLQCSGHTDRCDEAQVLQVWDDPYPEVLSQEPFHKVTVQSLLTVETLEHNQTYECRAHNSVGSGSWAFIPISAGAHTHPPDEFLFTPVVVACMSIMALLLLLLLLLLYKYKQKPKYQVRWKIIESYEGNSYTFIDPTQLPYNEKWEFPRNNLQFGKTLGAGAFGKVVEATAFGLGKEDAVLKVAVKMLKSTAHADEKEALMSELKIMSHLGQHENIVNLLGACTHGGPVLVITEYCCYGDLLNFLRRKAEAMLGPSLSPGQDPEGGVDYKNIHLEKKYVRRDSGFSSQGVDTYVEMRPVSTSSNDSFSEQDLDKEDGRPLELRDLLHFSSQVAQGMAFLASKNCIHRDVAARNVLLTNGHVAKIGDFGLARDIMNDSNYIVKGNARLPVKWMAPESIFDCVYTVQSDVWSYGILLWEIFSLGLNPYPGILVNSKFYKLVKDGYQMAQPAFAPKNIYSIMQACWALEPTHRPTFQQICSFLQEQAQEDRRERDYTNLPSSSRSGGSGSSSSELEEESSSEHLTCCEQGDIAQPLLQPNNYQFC
Assay [12] deals with Tyrosine-protein kinase JAK1 (Homo sapiens) (UniProt P23458). Description: Inhibition of human recombinant JAK1 at 500 nM radiometric scintillation counting analysis relative to control.
Chain of Tyrosine-protein kinase JAK1 (Homo sapiens) (P23458 whole entry): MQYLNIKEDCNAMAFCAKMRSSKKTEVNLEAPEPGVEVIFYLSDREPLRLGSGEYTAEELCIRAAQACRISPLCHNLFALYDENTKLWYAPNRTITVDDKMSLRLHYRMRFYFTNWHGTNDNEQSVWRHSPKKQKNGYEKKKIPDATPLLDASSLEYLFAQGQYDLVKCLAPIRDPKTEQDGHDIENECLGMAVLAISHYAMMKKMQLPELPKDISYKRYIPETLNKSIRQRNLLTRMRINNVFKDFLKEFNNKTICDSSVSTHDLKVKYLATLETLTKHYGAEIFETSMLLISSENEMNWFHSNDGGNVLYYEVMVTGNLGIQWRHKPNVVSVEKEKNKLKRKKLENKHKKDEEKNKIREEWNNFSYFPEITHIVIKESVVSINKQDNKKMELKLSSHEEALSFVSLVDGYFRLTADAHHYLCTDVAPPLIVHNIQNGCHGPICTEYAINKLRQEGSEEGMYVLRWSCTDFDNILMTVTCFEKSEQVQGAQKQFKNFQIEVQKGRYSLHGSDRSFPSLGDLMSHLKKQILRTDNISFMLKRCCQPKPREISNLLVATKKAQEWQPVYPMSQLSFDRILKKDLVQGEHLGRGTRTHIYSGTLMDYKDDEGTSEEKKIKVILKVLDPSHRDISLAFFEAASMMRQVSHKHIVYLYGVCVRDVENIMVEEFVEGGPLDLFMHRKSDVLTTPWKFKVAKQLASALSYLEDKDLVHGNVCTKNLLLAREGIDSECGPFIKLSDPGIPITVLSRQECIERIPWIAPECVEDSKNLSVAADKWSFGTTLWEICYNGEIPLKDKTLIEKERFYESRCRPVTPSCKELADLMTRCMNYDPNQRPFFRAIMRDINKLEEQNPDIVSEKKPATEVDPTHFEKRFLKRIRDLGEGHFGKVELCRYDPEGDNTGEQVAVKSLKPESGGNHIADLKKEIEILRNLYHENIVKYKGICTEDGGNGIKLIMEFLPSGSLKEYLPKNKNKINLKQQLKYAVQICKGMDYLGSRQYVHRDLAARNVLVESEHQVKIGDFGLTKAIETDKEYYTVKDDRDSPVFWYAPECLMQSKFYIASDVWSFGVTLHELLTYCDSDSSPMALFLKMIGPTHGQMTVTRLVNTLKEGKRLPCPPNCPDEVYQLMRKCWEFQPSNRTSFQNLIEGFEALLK
Assay [13] addresses Proto-oncogene tyrosine-protein kinase Src (Homo sapiens, UniProt P12931). Description: Inhibition of human recombinant Src (1-530) at 50 nM by radiometric scintillation counting analysis relative to control.
In assay [14] the target is Tyrosine-protein kinase Yes (Homo sapiens, UniProt P07947). Description: Inhibition of human full length recombinant Yes at 500 nM by radiometric scintillation counting analysis relative to control.
Assay [15] deals with Tyrosine-protein kinase BTK (Homo sapiens) (UniProt Q06187). Description: Inhibition of human full length recombinant BTK at 500 nM by radiometric scintillation counting analysis relative to control.
Chain of Tyrosine-protein kinase BTK (Homo sapiens) (Q06187 whole entry): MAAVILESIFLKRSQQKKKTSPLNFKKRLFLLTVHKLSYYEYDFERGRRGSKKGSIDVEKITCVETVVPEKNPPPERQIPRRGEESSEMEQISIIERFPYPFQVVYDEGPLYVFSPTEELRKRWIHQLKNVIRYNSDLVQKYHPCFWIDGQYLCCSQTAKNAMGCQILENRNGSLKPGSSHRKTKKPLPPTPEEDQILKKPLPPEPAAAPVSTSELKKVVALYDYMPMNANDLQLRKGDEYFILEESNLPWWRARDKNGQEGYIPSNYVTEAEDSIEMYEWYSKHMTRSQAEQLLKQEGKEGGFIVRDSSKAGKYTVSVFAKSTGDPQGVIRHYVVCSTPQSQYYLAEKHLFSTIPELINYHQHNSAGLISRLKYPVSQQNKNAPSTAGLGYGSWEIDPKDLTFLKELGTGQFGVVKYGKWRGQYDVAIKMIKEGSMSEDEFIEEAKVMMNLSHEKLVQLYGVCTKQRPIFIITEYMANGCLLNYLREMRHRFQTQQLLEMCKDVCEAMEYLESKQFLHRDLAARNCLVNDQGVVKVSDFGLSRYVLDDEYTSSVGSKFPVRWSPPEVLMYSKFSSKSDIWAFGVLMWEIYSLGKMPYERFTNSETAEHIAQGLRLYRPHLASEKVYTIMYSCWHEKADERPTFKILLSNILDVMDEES
The target in assay [16] is Platelet-derived growth factor receptor beta (Homo sapiens) (UniProt P09619). Briefly: Inhibition of human recombinant PDGFRbeta (557 to end) at 500 nM by radiometric scintillation counting analysis relative to control.
The target of assay [17] is Tyrosine-protein kinase JAK1 (Homo sapiens) (UniProt P23458). Description: Inhibition of human recombinant JAK1 at 50 nM radiometric scintillation counting analysis relative to control.

SMILES strings stand for the structures.

What is called inhibition is the drop in the measured response relative to a control, in per cent.

Chain of Proto-oncogene tyrosine-protein kinase Src (P12931 2-536 limits assumed): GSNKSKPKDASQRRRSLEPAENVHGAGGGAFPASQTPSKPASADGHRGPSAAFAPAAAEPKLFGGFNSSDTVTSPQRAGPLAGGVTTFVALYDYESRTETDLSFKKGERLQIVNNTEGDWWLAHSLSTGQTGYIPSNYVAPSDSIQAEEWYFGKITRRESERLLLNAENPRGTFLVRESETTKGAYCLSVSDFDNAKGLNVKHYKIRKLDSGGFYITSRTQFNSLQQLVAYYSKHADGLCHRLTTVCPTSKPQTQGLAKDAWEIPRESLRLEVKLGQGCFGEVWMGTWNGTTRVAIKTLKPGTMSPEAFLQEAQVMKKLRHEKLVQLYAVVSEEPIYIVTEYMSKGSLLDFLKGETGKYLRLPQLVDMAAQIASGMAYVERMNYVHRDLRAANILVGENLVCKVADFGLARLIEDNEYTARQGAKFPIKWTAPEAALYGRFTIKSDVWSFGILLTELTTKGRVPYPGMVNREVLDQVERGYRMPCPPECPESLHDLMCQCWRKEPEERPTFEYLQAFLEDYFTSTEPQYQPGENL

In the case of `Cc1ccc(C(=O)Nc2cc(C(F)(F)F)cc(C(F)(F)F)c2)cc1C#Cc1cc(-c2cnn(C)c2)cnc1N`, the inhibition came to 56% in assay [1]; 55% in assay [2]; 22% in assay [3]; 105% in assay [4]; 86% in [5]; 96% in assay [6]. The inhibition was 20% in [7]; 16% in assay [8]; 11% in assay [9]; 6% in [10]; 83% in [11]; 0% in [12]. Besides, the inhibition was found to be 98% in assay [13]; 98% in assay [14]; 49% in assay [15]; 12% in assay [16]; 37% in assay [17].
Take `Cc1ccc(C(=O)Nc2ccc(Cl)cc2Cl)cc1C#Cc1cc(-c2cnn(C)c2)cnc1N`: the inhibition in [1] is 13%; in [2] it was 43%; in assay [3] it was 32%; in [4] it was 93%; in assay [5], -1%; in [6] it was 105%. The inhibition in [7] is 7%; in [8], 21%; in assay [9], 1%; in assay [10], 54%; in [11] it was 94%; in [12], -8%. The inhibition in assay [13] was 49%; in [14], 39%; in assay [15] it was 11%; in assay [16] it was 83%; in assay [17], -6%.
Take `Cc1ccc(C(=O)Nc2ccc(OC(F)(F)F)cc2)cc1C#Cc1cc(-c2cnn(C)c2)cnc1N`: the inhibition in [1] came to 69%; in [2], 81%; in [3], 58%; in assay [4], 99%; in assay [5], 42%; in assay [6] it was 99%. Moreover, the inhibition in assay [7] is -1%; in assay [8], -6%; in [9] it was 68%; in assay [10], 13%; in [11] it was 69%; in assay [12], -2%. Moreover, the inhibition is 95% in assay [13]; 94% in assay [14]; -2% in assay [15]; 71% in [16]; 8% in assay [17].

The values above are taken from ChEMBL document CHEMBL4837249, “Discovery of Potent Antiallergic Agents Based on an o-Aminopyridinyl Alkynyl Scaffold” (J Med Chem, 2021).
